How the values were obtained:
Assay in all cases: relative viability (nuclei count vs DMSO), 5 days (fraction); higher = more cells survive
EKVX = system: EKVX
How it was run: (§1)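 The day after seeding in 1536-well plates, lung cancer cell lines were treated by pin tool with a single drug, or with a fixed anchor-drug dose together with five library-drug doses (not always all listed) in √10 steps. After 5 days, a combined fix-and-stain solution (final 0.05% Triton X-100, 1% formaldehyde, 1 ug/ml Hoechst) was added. Nuclei counted on 4× images gave relative viability as treated counts over vehicle counts, reported as the median of duplicate plates.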

LCLC-97TM1 = system: LCLC-97TM1
How it was run: as §1

NCI-H1437 = system: NCI-H1437
How it was run: as §1

NCI-H1650 = system: NCI-H1650
How it was run: as §1

NCI-H1666 = system: NCI-H1666
How it was run: as §1

NCI-H1792 = system: NCI-H1792
How it was run: as §1

NCI-H1915 = system: NCI-H1915
How it was run: as §1

NCI-H1975 = system: NCI-H1975
How it was run: as §1

NCI-H2342 = system: NCI-H2342
How it was run: as §1

NCI-H23 = system: NCI-H23
How it was run: as §1

NCI-H322M = system: NCI-H322M
How it was run: as §1

NCI-H358 = system: NCI-H358
How it was run: as §1

NCI-H441 = system: NCI-H441
How it was run: as §1

NCI-H460 = system: NCI-H460
How it was run: as §1

NCI-H520 = system: NCI-H520
How it was run: as §1

NCI-H522 = system: NCI-H522
How it was run: as §1

NCI-H647 = system: NCI-H647
How it was run: as §1

NCI-H661 = system: NCI-H661
How it was run: as §1

NCI-H727 = system: NCI-H727
How it was run: as §1

NCI-H838 = system: NCI-H838
How it was run: as §1

PC-3 [JPC-3] = system: PC-3 [JPC-3]
How it was run: as §1

SK-LU-1 = system: SK-LU-1
How it was run: as §1

CN1CCN(CCOc2cc(OC3CCOCC3)c3c(Nc4c(Cl)ccc5c4OCO5)ncnc3c2)CC1 [Saracatinib] + CC(=O)c1c(C)c2cnc(Nc3ccc(N4CCNCC4)cn3)nc2n(C2CCCC2)c1=O [Palbociclib] (partner 0.5 µM)
relative viability (EKVX; first compound 0.02 µM): 0.38
relative viability (EKVX; first compound 0.6325 µM): 0.306
relative viability (EKVX; first compound 2 µM): 0.146
relative viability (LCLC-97TM1; first compound 0.02 µM): 0.21
relative viability (LCLC-97TM1; first compound 0.2 µM): 0.185
relative viability (LCLC-97TM1; first compound 0.6325 µM): 0.281
relative viability (LCLC-97TM1; first compound 2 µM): 0.175
relative viability (NCI-H1437; first compound 0.02 µM): 0.355
relative viability (NCI-H1437; first compound 0.2 µM): 0.337
relative viability (NCI-H1437; first compound 0.6325 µM): 0.455
relative viability (NCI-H1437; first compound 2 µM): 0.308
relative viability (NCI-H1650; first compound 0.02 µM): 0.334
relative viability (NCI-H1650; first compound 0.2 µM): 0.28
relative viability (NCI-H1650; first compound 0.6325 µM): 0.267
relative viability (NCI-H1650; first compound 2 µM): 0.159
relative viability (NCI-H1666; first compound 0.02 µM): 0.684
relative viability (NCI-H1666; first compound 0.2 µM): 0.474
relative viability (NCI-H1666; first compound 0.6325 µM): 0.599
relative viability (NCI-H1666; first compound 2 µM): 0.651
relative viability (NCI-H1792; first compound 0.02 µM): 0.567
relative viability (NCI-H1792; first compound 0.2 µM): 0.439
relative viability (NCI-H1792; first compound 0.6325 µM): 0.781
relative viability (NCI-H1792; first compound 2 µM): 0.55
relative viability (NCI-H1915; first compound 0.02 µM): 0.488
relative viability (NCI-H1915; first compound 0.2 µM): 0.468
relative viability (NCI-H1915; first compound 0.6325 µM): 0.537
relative viability (NCI-H1915; first compound 2 µM): 0.462
relative viability (NCI-H1975; first compound 0.02 µM): 0.584
relative viability (NCI-H1975; first compound 0.2 µM): 0.603
relative viability (NCI-H1975; first compound 0.6325 µM): 0.718
relative viability (NCI-H1975; first compound 2 µM): 0.441
relative viability (NCI-H2342; first compound 0.02 µM): 0.528
relative viability (NCI-H2342; first compound 0.2 µM): 0.479
relative viability (NCI-H2342; first compound 0.6325 µM): 0.524
relative viability (NCI-H2342; first compound 2 µM): 0.545
relative viability (NCI-H23; first compound 0.02 µM): 0.526
relative viability (NCI-H23; first compound 0.6325 µM): 0.573
relative viability (NCI-H23; first compound 2 µM): 0.403
relative viability (NCI-H322M; first compound 0.02 µM): 0.534
relative viability (NCI-H322M; first compound 0.2 µM): 0.38
relative viability (NCI-H322M; first compound 0.6325 µM): 0.46
relative viability (NCI-H322M; first compound 2 µM): 0.306
relative viability (NCI-H358; first compound 0.02 µM): 0.136
relative viability (NCI-H358; first compound 0.2 µM): 0.118
relative viability (NCI-H358; first compound 0.6325 µM): 0.127
relative viability (NCI-H358; first compound 2 µM): 0.0903
relative viability (NCI-H441; first compound 0.02 µM): 0.243
relative viability (NCI-H441; first compound 0.2 µM): 0.196
relative viability (NCI-H441; first compound 0.6325 µM): 0.199
relative viability (NCI-H441; first compound 2 µM): 0.182
relative viability (NCI-H460; first compound 0.02 µM): 0.146
relative viability (NCI-H460; first compound 0.2 µM): 0.131
relative viability (NCI-H460; first compound 0.6325 µM): 0.228
relative viability (NCI-H460; first compound 2 µM): 0.121
relative viability (NCI-H520; first compound 0.02 µM): 0.249
relative viability (NCI-H520; first compound 0.2 µM): 0.211
relative viability (NCI-H520; first compound 0.6325 µM): 0.214
relative viability (NCI-H520; first compound 2 µM): 0.156
relative viability (NCI-H522; first compound 0.02 µM): 0.914
relative viability (NCI-H522; first compound 0.2 µM): 0.802
relative viability (NCI-H522; first compound 0.6325 µM): 0.911
relative viability (NCI-H522; first compound 2 µM): 0.756
relative viability (NCI-H647; first compound 0.02 µM): 0.383
relative viability (NCI-H647; first compound 0.2 µM): 0.239
relative viability (NCI-H647; first compound 0.6325 µM): 0.347
relative viability (NCI-H647; first compound 2 µM): 0.265
relative viability (NCI-H661; first compound 0.02 µM): 0.393
relative viability (NCI-H661; first compound 0.2 µM): 0.359
relative viability (NCI-H661; first compound 0.6325 µM): 0.395
relative viability (NCI-H661; first compound 2 µM): 0.306
relative viability (NCI-H727; first compound 0.02 µM): 0.604
relative viability (NCI-H727; first compound 0.2 µM): 0.692
relative viability (NCI-H727; first compound 0.6325 µM): 0.674
relative viability (NCI-H727; first compound 2 µM): 0.551
relative viability (NCI-H838; first compound 0.02 µM): 0.224
relative viability (NCI-H838; first compound 0.2 µM): 0.215
relative viability (NCI-H838; first compound 0.6325 µM): 0.216
relative viability (NCI-H838; first compound 2 µM): 0.182
relative viability (PC-3 [JPC-3]; first compound 0.02 µM): 0.568
relative viability (PC-3 [JPC-3]; first compound 0.2 µM): 0.507
relative viability (PC-3 [JPC-3]; first compound 0.6325 µM): 0.532
relative viability (PC-3 [JPC-3]; first compound 2 µM): 0.561
relative viability (SK-LU-1; first compound 0.02 µM): 0.517
relative viability (SK-LU-1; first compound 0.2 µM): 0.297
relative viability (SK-LU-1; first compound 0.6325 µM): 0.328
relative viability (SK-LU-1; first compound 2 µM): 0.254

— the supplement of paper PMC10307832
